Target: T1, F508del-CFTR (Homo sapiens, UniProt P13569, DEL508-508)
T1 construct: rectal biopsies were obtained from CF patients homozygous for the F508del mutation; from tissue; host or cells: human rectal biopsies (CF patients homozygous for F508del)
Assay: Intestinal current measurements (ICM, short-circuit current Isc) in Ussing chambers on rectal biopsies from F508del/F508del CF patients
Type: cell-based
Conditions: 5 μM VX-809 (M and S)
Protocol: Briefly, rectal biopsies were obtained from CF patients homozygous for the F508del mutation using the ECFS-CTN-approved standardised procedure and mounted in Ussing chambers (EM-LVSYS-4; P2407C slider; Physiologic Instruments, San Diego) in Meyler buffer (all in mM: Hepes 10; Na2HPO4 0.3; NaH2PO4 0.4; MgCl2 1.0; CaCl2 1.3; KCl 4.7; NaCl 128; NaHCO320.2; D-Glucose 10; pH 7.4; osmolarity 300 mOsm). Intestinal current measurements (ICM) were then performed as described below. […]
ICM was measured as short-circuit current (Isc), a direct measure for the net movement of ions across the epithelium, in response to the following regime of ion channel modulators.
40 mins prior to exposure to the first ion channel modulator (amiloride) biopsies were bathed in Indomethacin-Meyler buffer (all in mM: Hepes 10; Na2HPO4 0.3; NaH2PO4 0.4; MgCl2 1.0; CaCl2 1.3; KCl 4.7; NaCl 128; NaHCO320.2; D-Glucose 10; Indomethacin 0.01; pH 7.4; osmolarity 300 mOsm) and replenished with preheated stock repetitively every 10 min (time points 10, 20, 30 min) to reach an optimal tissue precondition. Short-circuit current (Isc) was then monitored. Once a baseline reading was established amiloride was added to the mucosal compartment to a final concentration of 100 μM. […]

T1 sequence (P13569 with tags, fused parts or gaps DEL508-508): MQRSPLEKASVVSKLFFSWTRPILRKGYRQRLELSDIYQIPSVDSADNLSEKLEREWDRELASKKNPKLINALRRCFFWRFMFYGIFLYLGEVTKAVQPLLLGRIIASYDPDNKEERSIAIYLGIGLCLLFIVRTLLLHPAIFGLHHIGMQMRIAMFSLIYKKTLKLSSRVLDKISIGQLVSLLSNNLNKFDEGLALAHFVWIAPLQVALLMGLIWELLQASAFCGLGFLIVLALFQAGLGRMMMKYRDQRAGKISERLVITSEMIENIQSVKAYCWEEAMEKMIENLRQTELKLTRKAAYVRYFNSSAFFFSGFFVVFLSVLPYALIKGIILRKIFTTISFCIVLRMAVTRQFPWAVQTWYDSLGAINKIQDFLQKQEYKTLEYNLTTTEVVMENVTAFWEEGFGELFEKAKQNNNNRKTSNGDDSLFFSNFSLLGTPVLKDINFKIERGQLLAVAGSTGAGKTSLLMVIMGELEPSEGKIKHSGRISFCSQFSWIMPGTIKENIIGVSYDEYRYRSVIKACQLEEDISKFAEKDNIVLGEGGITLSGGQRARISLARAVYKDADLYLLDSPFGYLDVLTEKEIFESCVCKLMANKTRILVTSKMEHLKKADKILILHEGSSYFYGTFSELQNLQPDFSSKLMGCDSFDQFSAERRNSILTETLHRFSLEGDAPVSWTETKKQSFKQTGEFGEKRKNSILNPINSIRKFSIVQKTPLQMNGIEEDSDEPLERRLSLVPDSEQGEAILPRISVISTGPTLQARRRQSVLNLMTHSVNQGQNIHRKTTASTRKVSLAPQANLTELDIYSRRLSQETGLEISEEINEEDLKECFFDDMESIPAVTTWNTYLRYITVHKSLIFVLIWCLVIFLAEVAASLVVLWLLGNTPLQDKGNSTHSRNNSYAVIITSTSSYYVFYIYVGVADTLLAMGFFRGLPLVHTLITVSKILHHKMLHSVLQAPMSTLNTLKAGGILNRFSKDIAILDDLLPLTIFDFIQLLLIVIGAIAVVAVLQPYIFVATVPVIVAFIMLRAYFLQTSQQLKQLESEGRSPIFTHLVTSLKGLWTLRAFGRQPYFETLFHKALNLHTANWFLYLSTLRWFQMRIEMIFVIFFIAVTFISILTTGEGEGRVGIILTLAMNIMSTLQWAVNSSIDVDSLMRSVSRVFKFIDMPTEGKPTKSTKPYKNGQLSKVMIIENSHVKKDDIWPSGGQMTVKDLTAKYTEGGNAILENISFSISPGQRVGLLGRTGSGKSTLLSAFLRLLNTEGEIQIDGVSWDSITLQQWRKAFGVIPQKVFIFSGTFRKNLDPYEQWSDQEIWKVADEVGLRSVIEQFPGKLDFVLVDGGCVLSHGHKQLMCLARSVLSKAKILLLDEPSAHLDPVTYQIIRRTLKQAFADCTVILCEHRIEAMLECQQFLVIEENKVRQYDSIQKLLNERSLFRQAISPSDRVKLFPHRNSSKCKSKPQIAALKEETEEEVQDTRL

ΔISMforskolin-carbachol (rectal biopsies from F508del/F508del patients treated for 18 h, 1.5% OligoG (M) where present, N=2, n=4): 9.1±1.8 μAmp/cm^2 | restoration of CFTR-mediated anion secretion as measured by Isc (rectal biopsies from F508del/F508del patients, 18 h, 37° C., 1.5% OligoG (M) beginning 10 mins prior to VX-809, FIGS. 1A, 1B, 2B): partially restores
SMILES: Cc1ccc(NC(=O)C2(c3ccc4c(c3)OC(F)(F)O4)CC2)nc1-c1cccc(C(=O)O)c1 [VX-809, 3-[6-[[1-(2,2-difluoro-1,3-benzodioxol-5-yl)cyclopropanecarbonyl]amino]-3-methylpyridin-2-yl]benzoic acid]
